Results published in article PMC6723440 (Toxins, 2019).
Like-named read-outs stand apart in the source and are kept apart here.

Tests used:
[1] = human; for percentage of metabolized parent toxin in phase I reactions: microsomes, 1 h
[2] = human, pH 7.4
[3] = human; cited from earlier work
[4] = in vivo; cited from earlier work
[5] = human, pH 7.4; remark: listed apart in the source

For `C[C@H]1CCC[C@H](O)CCCCCc2cc(O)cc(O)c2C(=O)O1` [α-ZAL, 7-α-hydroxy-zearalanol], the “percentage of metabolized parent toxin in phase I reactions” value (“percentage of metabolized parent toxin” for short) [1] was 29%.
For `CC(=O)O[C@@H]1C[C@]2(C)[C@@]3(CO)[C@H](O)C(=O)C(C)=C[C@H]3O[C@H]1[C@@]21CO1` [3-AcDON, 3-acetyldeoxynivalenol], the “LC-MS Library: metabolites generated” value [2] is listed as “Phase I metabolites: DON Glucuronides: Gluc-3-AcDON”, the “converted into DON” value ([1]; pH 7.4) is listed as 50% and the “metabolized to DON” value [3] is listed as 78%.
For `CC1=C[C@H]2O[C@@H]3[C@H](O)C[C@](C)([C@@]2(CO)[C@H](O)C1=O)[C@]31CO1` [DON, deoxynivalenol], the “LC-MS Library: metabolites generated” value [2] is given as “Phase I metabolites: NIV, DOM-1 and its two isomers, Glucuronides: 15-Gluc-DON, 3-Gluc-DON”, the “predominant species in urine” value [4] is given as 27% and the “total urinary DON present as free DON” value [4] is given as 27.4%. For the same compound, the “total urinary deoxynivalenol (DON) composed of its glucuronides (15-Gluc-DON and 3-Gluc-DON)” value [4] was “approximately 72.6%” and the “converted into DNIV” value ([1]; pH 7.4) was “less than 1%”.
For `CC(=O)OC[C@]12[C@H](O)C(=O)C(C)=C[C@H]1O[C@@H]1[C@H](O)C[C@@]2(C)[C@]12CO2` [15-AcDON, 15-acetyldeoxynivalenol], the “LC-MS Library: metabolites generated” value [2] was “Phase I metabolites: DON Glucuronides: Gluc-15-AcDON” and the “converted into DON” value ([1]; pH 7.4) was 1%.
In the case of `CC1=C[C@H]2O[C@@H]3[C@H](O)[C@@H](O)[C@](C)([C@@]2(CO)[C@H](O)C1=O)[C@]31CO1` [NIV, nivalenol], the “converted into DNIV” value ([1]; pH 7.4) is reported as 5% and the glucuronidation [5] is reported as less than 1%.
For `C[C@H]1CCCC(=O)CCC/C=C/c2cc(O)cc(O)c2C(=O)O1` [ZEN, zearalenone], the “LC-MS Library: metabolites generated” value [2] was “Phase I metabolites: (-(H2) +(O))-ZEN, (+(O))-ZEN, (+(H2)+ (O))-ZEN Glucuronides: Gluc-16-ZEN, Gluc-14-ZEN, Gluc-(+O)-ZEN, 2xGluc-ZEN”, the “percentage of metabolized parent toxin” value ([1]; pH 7.4) was 27% and the “Number of Metabolites (n): Desaturation oxidation, −(H2) +(O2)” value ([1]; pH 7.4) was 0. For the same compound, the “Number of Metabolites (n): Desaturation, oxidation, −(H2) +(O)” value ([1]; pH 7.4) was 1, the “Number of Metabolites (n): Desaturation, oxidation, −(H4) +(O)” value ([1]; pH 7.4) was 0 and the “Number of Metabolites (n): Oxidation, +(O2)” value ([1]; pH 7.4) was 0. For the same compound, the “Number of Metabolites (n): Oxidation, −(H4) +(O2)” value ([1]; pH 7.4) was 0, the “Number of Metabolites (n): Reduction, oxidation, +(H2) +(O)” value ([1]; pH 7.4) was 2 and the “share of Oxidation +(O) metabolites in ∑ n” value ([1]; pH 7.4) was 9(75%). The “∑ n, total number of oxidized metabolites” value ([1]; pH 7.4) was 12, the “Total Number of Glucuronides” value [5] was 10 and the converted into glucoronides [5] was 99%. For the same compound, the “glucuronides of oxidized metabolites and double glucuronides (minor products)” value [5] was 8%, the “glucuronides of parent toxins at position C-14” value [5] was 86% and the “share of species, Figure 7 pie” value [5] was 1%. For the same compound, the “sum of parent glucuronides” value [5] was 91%.
For `C[C@H]1CCC[C@H](O)CCC/C=C/c2cc(O)cc(O)c2C(=O)O1` [α-ZOL, 7-α-hydroxy-zearalenol], the “percentage of metabolized parent toxin” value [1] was 70%.
With `CC(=O)OC[C@]12C[C@H](OC(=O)CC(C)C)C(C)=C[C@H]1O[C@@H]1[C@H](O)[C@@H](O)[C@@]2(C)[C@]12CO2` [HT-2, HT-2 toxin] the “LC-MS Library: metabolites generated” value [2] was “Phase I metabolites: 4-de-Ac-NEO and its isomer, 3′-OH-HT-2, 4′-OH-HT-2 and its isomer Three OH-T-2 metabolites at 7 or 10 or 16-OH-HT-2 Two unknown metabolites Glucuronides: Gluc-3-HT-2”.
For `CC(=O)OCC12CC(OC(=O)CC(C)C)C(C)=CC1OC1C(OC3OC(C(=O)O)C(O)C(O)C3O)C(OC(C)=O)C2(C)C12CO2` (stereo not drawn) [T-2 glucuronide], the “share of glucuronide form” value [5] was 8%.
With `C[C@H]1CCCC(=O)CCCCCc2cc(O)cc(O)c2C(=O)O1` [ZAN, zearalanone] the “LC-MS Library: metabolites generated” value [2] was “Phase I metabolites: (-(H2) +(O))-ZAN, (+(O))-ZAN, (+(H2)+ (O))-ZAN, (+(O2))-ZAN, (-(H2) +(O2))-ZAN Glucuronides: Gluc-16-ZAN, Gluc-14-ZAN, Gluc-(+O)- ZAN, 2xGluc- ZAN, Gluc-(+(H2)+(O))-ZAN, 2 × Gluc-(+O)-ZAN, 2 × Gluc-(+(H2)+(O))-ZAN”, the “percentage of metabolized parent toxin” value ([1]; pH 7.4) was 66% and the “Number of Metabolites (n): Desaturation oxidation, −(H2) +(O2)” value ([1]; pH 7.4) was 2. For the same compound, the “Number of Metabolites (n): Desaturation, oxidation, −(H2) +(O)” value ([1]; pH 7.4) was 1, the “Number of Metabolites (n): Desaturation, oxidation, −(H4) +(O)” value ([1]; pH 7.4) was 0 and the “Number of Metabolites (n): Oxidation +(O)” value ([1]; pH 7.4) was 5(23%). The “Number of Metabolites (n): Oxidation, +(O2)” value ([1]; pH 7.4) was 6(27%), the “Number of Metabolites (n): Oxidation, −(H4) +(O2)” value ([1]; pH 7.4) was 0 and the “share of Oxidation +(O) metabolites in ∑ n” value ([1]; pH 7.4) was 5(23%). The “share of Oxidation, +(O2) metabolites in ∑ n” value ([1]; pH 7.4) was 6(27%), the “share of Reduction, oxidation, +(H2) +(O) metabolites in ∑ n” value ([1]; pH 7.4) was 8(36%) and the “∑ n, total number of oxidized metabolites” value ([1]; pH 7.4) was 22. For the same compound, the “Total Number of Glucuronides” value [5] was 24, the converted into glucoronides [5] was 93% and the “glucuronides of oxidized metabolites and double glucuronides (minor products)” value [5] was 19%. The “glucuronides of parent toxins at position C-14” value [5] was 73%, the “share of species, Figure 7 pie” value [5] was 7% and the “sum of parent glucuronides” value [5] was 74%.
In the case of `C[C@H]1CCC[C@@H](O)CCCCCc2cc(O)cc(O)c2C(=O)O1` [β-ZAL, 7-β-hydroxy-zearalanol], the “percentage of metabolized parent toxin” value [1] is reported as 23%.
